In this assay the test system is MPG/CN neurons. Briefly: MPG/CN organ culture with Affi-Gel beads, quantification of neurites. The class given is cell-based, Sprague Dawley rats. The note with it: uninjured MPG/CN, three days, SHH inhibitors on Affi-Gel beads, vs DMSO or PBS.

Molecules are shown by their SMILES.

The values below come from US11426448B2, “Methods for treatment of erectile dysfunction with sonic hedgehog compounds” (NORTHWESTERN UNIVERSITY, priority 2018, dated 2022).

Take `CC1=C2C[C@H]3[C@@H](CC=C4C[C@@H](O)CC[C@@]43C)[C@@H]2CC[C@]12O[C@@H]1C[C@H](C)CN[C@H]1[C@H]2C` [cyclopamine]: the neurite formation reduced worked out at 5.6 fold and the “neurite formation reduced / inhibited” value is 82%.
